Experimental findings from BindingDB's records for patent US12194050 (Richter Gedeon, 2025) are described below.

The structures appear in SMILES notation.

For the test, the target named is Neuronal acetylcholine receptor subunit alpha-7 (Homo sapiens, UniProt P36544). Nature of the test: Ca2+ Fluorometry. The protocol:
α7 cells stably expressing human α7 nAchR were cultured in the medium detailed above, and were split twice a week. For the fluorometric measurements of cytosolic Ca2+ ion concentration ([Ca2+]i) cells were seeded in 96-well microplates at a density of 60000 cells/well and maintained overnight in a tissue culture incubator at 37° C. under an atmosphere of 95% air/5% CO2. The plating medium was identical with the culture medium. 50 μl of the growth medium was aspirated with a cell washer (BioTek Elx405UCVWS). Then 50 μl/well Calcium 5 kit diluted 2-fold in assay buffer was added manually using an 8-channel pipette. […] Baseline and agonist-evoked [Ca2+]i-changes were monitored with FlexStation II (Molecular Devices, Sunnyvale, Calif.), a plate reader fluorometer with integrated 8-channel fluid addition capability. Fluorescence measurements were carried out at 37° C. […] Baseline was recorded for 20 seconds followed by agonist stimulation. 50 μl 4× concentrated agonist solution was added to the cells using the pipettor of FlexStation II and fluorescence was monitored for an additional 40 seconds. […] In all experiments, all treatments were measured in multiple wells in parallel, and the mean ΔF/F values were used for analysis.

Chain of Neuronal acetylcholine receptor subunit alpha-7 (P36544 whole entry): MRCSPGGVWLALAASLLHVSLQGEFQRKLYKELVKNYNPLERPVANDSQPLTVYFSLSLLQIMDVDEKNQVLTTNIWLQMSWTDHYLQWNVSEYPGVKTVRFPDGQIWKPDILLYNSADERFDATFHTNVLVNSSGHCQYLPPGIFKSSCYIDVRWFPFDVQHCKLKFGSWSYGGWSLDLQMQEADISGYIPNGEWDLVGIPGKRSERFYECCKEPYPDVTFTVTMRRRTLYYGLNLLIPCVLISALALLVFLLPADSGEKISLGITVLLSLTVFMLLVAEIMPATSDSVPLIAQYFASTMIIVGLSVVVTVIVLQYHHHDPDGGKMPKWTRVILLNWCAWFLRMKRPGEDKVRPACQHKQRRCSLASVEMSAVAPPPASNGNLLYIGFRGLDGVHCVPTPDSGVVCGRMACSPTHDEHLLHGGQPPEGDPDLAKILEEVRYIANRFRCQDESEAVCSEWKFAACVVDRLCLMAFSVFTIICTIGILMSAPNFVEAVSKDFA

The molecule `CCN1C(C(=O)Nc2cccc(C(F)(F)F)n2)=CC([C@H]2CC[C@H](C(F)(F)F)CC2)=NS1(=O)=O` [US12194050, Example 53] had an EC50 of 90 nM.

Broadly, the EC50 is the concentration that produces a half-maximal response. A higher EC50 goes with a need for much substance.
